In the assay the test system is 817829-284-R-J1-PDC complex spheroid viability. As to the kind of experiment: Anticancer human tumor 817829-284-R-J1-PDC patient-derived colon adenocarcinoma cell line growth inhibition [POLQ]. Conditions: for viability, T/C: stronger effect = lower value; for IC50: curve of compound. The method, then: Multicellular complex tumor spheroid response to Polymerase (POL) inhibitors (novobiocin, ART-558, RP6685) in combination with a variety of drugs and investigational agents in selected tumor cell lines
The POL inhibitors (novobiocin, ART-558, and RP6685) were evaluated both individually and in combination with standard of care and investigational anticancer small molecules within a complex spheroid model of solid tumors. . Complex spheroids include a stromal component modeled by human endothelial cells (HUVEC) and fibroblasts modeled by human mesenchymal stem cells (MSCs). The concentration ranges selected for each drug and investigational agent were based upon clinically achievable concentrations if the clinical Cmax of the agent was known.
Compounds. The drugs and investigational agents: novobiocin (NSC847541), ART-558 (NSC835418), RP-6685 (NSC848927), peposertib (NSC802822), ceralasertib (NSC780249), elimusertib (NSC800525), camonsertib (NSC841442), AZD-1390 (NSC803789), olaparib (NSC753686), talazoparib (NSC767125), rucaparib (NSC756644), sotorasib (NSC818433), MRTX-1133 (NSC836407), SN-38 (NSC673596), topotecan (NSC609699), epotoside (NSC141540), doxorubicin (NSC123127), gemcitabine (NSC613327), 5-fluorouracil (NSC19893), paclitaxel (NSC125973), vemurafenib (NSC761431), MSA-2 (NSC828583), SN-011 (NSC837082), adavosertib (NSC754352), prexasertib (NSC758257), carboplatin (NSC241240) and oxaliplatin (NSC266046), were obtained from the National Cancer Institute (NCI) Developmental Therapeutics Program Chemical Repository (21). The FDA-approved anticancer drug set is available from the Developmental Therapeutics Program at https://dtp.cancer.gov/organization/dscb/obtaining/. […] The stock solutions were prepared in dimethyl sulfoxide (DMSO, Sigma-Aldrich, St. Louis, MO, cat. D2650), except for the platinum compounds which were prepared in saline (Quality Biological, Gaithersburg, MD, cat. 114-055-101), at 800-fold the tested concentration and stored at -70 degrees C prior to their use. All drugs and investigational agents were tested over a range starting from a high concentration at or near the clinical Cmax and decreasing in half-log increments. If the clinical Cmax for an agent had not been determined, the highest concentration tested was 10 microM, except for SN-38, which was tested at a high concentration of 1 microM.
Cell Culture. All cells were maintained in an incubator at 37 degrees C and 5% CO2 with 95% humidity. The PDC lines were cultured according to standard operating procedures established by the NCI PDMR (https://pdmr.cancer.gov). Table 3 of the manuscript, lists the cell lines along with the number of the three cell types plated to form the mct-spheroids and media for tumor cell growth. After thawing, all PDC lines, except 997537-175-T-J1-PDC and 415267-285-R-J2-PDC, were cultured in Matrigel-coated flasks prepared with a working solution of 1X Ham's F-12 nutrient mix, without supplementation (Thermo Fisher Scientific, cat. 11765054), 100 U/mL penicillin-streptomycin (Thermo Fisher Scientific, cat. 15140122), and 2.5% Matrigel (Corning Inc., Corning, NY, cat. 354248) for the first three passages. The two PDC lines 997537-175-T-J1-PDC and 415267-285-R-J2-PDC were cultured on uncoated flasks. The 857933-349-R-J2-PDC line was cultured in 6C/Colon 1B media containing advanced DMEM/F-12 (Thermo Fisher Scientific, cat. 12634028), 10 mM HEPES (Thermo Fisher Scientific, cat. 15630080), 1X GlutaMAX supplement (Thermo Fisher Scientific, cat. 35050061), 0.1 mg/mL primocin (InvivoGen, San Diego, CA, cat. ant-pm-2), 10% defined fetal bovine serum, heat inactivated (HyClone Laboratories Inc., Logan, UT, cat. SH30070.03HI), 50% L-WRN conditioned media (ATCC, cat. CRL-3276), 1.25 mM N-Acetyl-L-cysteine (Sigma-Aldrich, cat. A9165), 10 mM nicotinamide (Sigma-Aldrich, cat. N0636), 1X B-27 supplement (Thermo Fisher Scientific, cat. 17504044), 1X N-2 supplement (Thermo Fisher Scientific, cat. […]

This note sets out measurements from PubChem BioAssay AID1963839 (Molecular Pharmacology Branch, DTP, NCI, 2024).

One may read the viability, T/C as the result in the treated group divided by that in the control group, in per cent. As a reminder, the IC50 is the concentration needed to halve the response being measured.

“And” between values parts separate entries of the source, which are not always exact repeats. Equal values may be shown once.
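Further: spheroids exposed to compounds for 7 days.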

Take `CCc1cc2c(N3CCc4c(cc(Cn5ccnc5)cc4-c4cn(C)nc4C(F)(F)F)C3=O)ccnc2c(OC)n1`: the IC50 is 3920 nM and 4920 nM and 3550 nM. In addition, where the note is “compound 0.0316 µM”, the viability, T/C is 101% and 91.9% and 80.3%. Besides, under “compound 0.1 µM”, the viability, T/C is 81% and 77.6% and 71.7%. For the same compound, where the note is “compound 0.316 µM”, the viability, T/C is 88.4% and 77.1% and 66.4%. In addition, the viability, T/C (compound 1 µM) was 65.8% and 68.8% and 64.9%. Further, the viability, T/C (compound 3.16 µM) is 54.2% and 59.5% and 53.1%. Moreover, the viability, T/C (compound 10 µM) was 34.8% and 38% and 33.4%.
For `CNCc1ccc(-c2[nH]c3cc(F)cc4c3c2CCNC4=O)cc1`, the IC50 was 6530 nM and 6300 nM and 9450 nM. The viability, T/C (compound 0.0316 µM) was 86.8% and 88% and 73.1%. For the same compound, the viability, T/C (compound 0.1 µM) is 81.9% and 77.7% and 81.3%. Under “compound 0.316 µM”, the viability, T/C is 63.4% and 89.9% and 53.7%. Besides, the viability, T/C (compound 1 µM) was 68.6% and 81.8% and 58.3%. Moreover, the viability, T/C (compound 3.16 µM) is 51.3% and 64.6% and 58.9%. Besides, the viability, T/C (compound 10 µM) is 47.6% (2×) and 40.2%.
As to `COc1cc(C2c3cc4c(cc3C(OC3OC5COC(C)OC5C(O)C3O)C3COC(=O)C23)OCO4)cc(OC)c1O` (configuration not stated), the IC50 was 47.7 nM and 91.2 nM and 61.7 nM. The viability, T/C (compound 0.0316 µM) was 60.4% and 73.7% and 73.4%. Moreover, for the setting “compound 0.1 µM”, the viability, T/C is 32.3% and 48.6% and 33.4%. Also, the viability, T/C (compound 0.316 µM) is 15.3% and 18.4% and 14.9%. Moreover, the viability, T/C (compound 1 µM) was 19.1% and 18.8% and 20.4%. The viability, T/C (compound 3.16 µM) is 16.7% and 11.9% and 11.2%. Also, the viability, T/C (compound 10 µM) is 6.7% and 6.64% and 6.97%.
Take `COc1cc2cc(C(=O)CCC(=O)O)sc2cc1OC`: the IC50 was > 10000 nM. Under “compound 0.0316 µM”, the viability, T/C was 114% and 112% and 90.4%. For the same compound, where the note is “compound 0.1 µM”, the viability, T/C is 88.4% and 107% and 83.7%. In addition, where the note is “compound 0.316 µM”, the viability, T/C was 94% and 105% and 84%. Moreover, the viability, T/C (compound 1 µM) was 81.1% and 89.5% and 102%. The viability, T/C (compound 3.16 µM) was 100% and 110% and 98.6%. Also, under “compound 10 µM”, the viability, T/C is 88.8% and 101% and 63.2%.
Take `COc1ccc([C@@H](O)c2cc(-c3ncnc4cc(N5CCOCC5)ccc34)c(F)cc2Cl)nn1`: the concentration for half-maximal inhibition (IC50) was 684 nM and 894 nM and 830 nM. In addition, for the setting “compound 0.0316 µM”, the viability, T/C is 79.4% and 93.7% and 78.8%. In addition, the viability, T/C (compound 0.1 µM) was 94.5% and 91% and 91.4%. In addition, the viability, T/C (compound 0.316 µM) is 65.4% and 72.2% and 74.5%. The viability, T/C (compound 1 µM) was 41% and 43.4% and 43.2%. Further, the viability, T/C (compound 3.16 µM) was 30.4% and 40.3% and 25.8%. Moreover, the viability, T/C (compound 10 µM) is 19.4% and 22.7% and 12.3%.
Turning to `COc1cccc(OCCCN)c1-c1cc(Nc2cnc(C#N)cn2)n[nH]1`, the IC50 is < 3.16 nM and 6.13 nM and 5.89 nM. The viability, T/C (compound 0.00316 µM) was 33.5% and 96.3% and 91.2%. Also, the viability, T/C (compound 0.01 µM) is 8.6% and 15.6% and 14.9%. Besides, the viability, T/C (compound 0.0316 µM) is 6.55% and 5.13% and 5.86%. Further, the viability, T/C (compound 0.1 µM) was 4.87% and 4.67% and 4.64%. Besides, the viability, T/C (compound 0.316 µM) is 4.09% and 5.43% and 4.13%. For the same compound, the viability, T/C (compound 1 µM) is 3.68% (2×) and 3.24%.
Take `COc1cccc2c1C(=O)c1c(O)c3c(c(O)c1C2=O)CC(O)(C(=O)CO)CC3OC1CC(N)C(O)C(C)O1` (configuration not stated): the IC50 is < 31.6 nM and 114 nM. Also, the viability, T/C (compound 0.0316 µM) was 16.9% and 19.5% and 19.8%. For the same compound, under “compound 0.1 µM”, the viability, T/C is 16.4% and 18.4% and 91.1%. The viability, T/C (compound 0.316 µM) is 5.17% and 6.51% and 6.09%. For the same compound, the viability, T/C (compound 1 µM) was 1.01% and 0.37% and 0.7%. The viability, T/C (compound 3.16 µM) was 0.33% and 0.32% and 0.25%. For the same compound, the viability, T/C (compound 10 µM) is 0.58% and 0.63% and 0.52%.
Turning to `Cn1ncnc1[C@H]1c2n[nH]c(=O)c3cc(F)cc(c23)N[C@@H]1c1ccc(F)cc1`, the IC50 was 11.8 nM and 37.5 nM and 14.7 nM. Moreover, the viability, T/C (compound 0.000316 µM) is 80.8% and 91.3% and 74.5%. Further, the viability, T/C (compound 0.001 µM) was 64% and 85.5% and 71.1%. Under “compound 0.00316 µM”, the viability, T/C is 54.7% and 74.7% and 71.7%. The viability, T/C (compound 0.01 µM) was 62.7% and 56.4% and 57.5%. Further, the viability, T/C (compound 0.0316 µM) was 38.1% and 61.4% and 34%. Besides, the viability, T/C (compound 0.1 µM) is 29.1% and 35.4% and 36.5%.
For the compound `Nc1ccn(C2OC(CO)C(O)C2(F)F)c(=O)n1` (configuration not stated), the IC50 was < 31.6 nM. The viability, T/C (compound 0.0316 µM) was 5.66% and 4.03% and 5.85%. Also, the viability, T/C (compound 0.1 µM) is 5.98% and 3.62% and 5.26%. The viability, T/C (compound 0.316 µM) is 6.49% and 4.28% and 5.54%. Besides, for the setting “compound 1 µM”, the viability, T/C was 5.15% and 3.77% and 4.65%. Besides, the viability, T/C (compound 3.16 µM) is 4.26% and 2.95% and 4.25%. Also, under “compound 10 µM”, the viability, T/C is 3.15% and 2.31% and 3.29%.
In the case of `O=C(Nc1ccc(O)c(NS(=O)(=O)c2ccc(F)cc2)c1)c1ccc(-c2ccccc2)cc1`, the half-inhibitory concentration (IC50) is 6880 nM and 8170 nM and 7070 nM. In addition, where the note is “compound 0.0316 µM”, the viability, T/C was 94% and 91.9% and 101%. Besides, the viability, T/C (compound 0.1 µM) was 96.5% and 104% and 103%. For the same compound, the viability, T/C (compound 0.316 µM) was 93.7% and 100% and 103%. The viability, T/C (compound 1 µM) is 92.4% and 99.3% and 78.3%. Moreover, where the note is “compound 3.16 µM”, the viability, T/C was 73.5% and 88.2% and 76.5%. Besides, the viability, T/C (compound 10 µM) was 38.7% and 41.5% and 39.8%.
`O=c1[nH]cc(F)c(=O)[nH]1`: the IC50 is 3450 nM and 1970 nM and 7540 nM. The viability, T/C (compound 0.0316 µM) was 104% and 91.8% and 101%. Moreover, the viability, T/C (compound 0.1 µM) is 104% and 98.7% and 75.8%. The viability, T/C (compound 0.316 µM) was 93% and 94.3% and 74.7%. The viability, T/C (compound 1 µM) was 69.7% and 67.1% and 72.8%. Also, the viability, T/C (compound 3.16 µM) was 50.6% and 38.9% and 57.3%. The viability, T/C (compound 10 µM) is 44.5% and 29.5% and 45.3%.
